# In patent US20230145406A1, “DIVALENT METAL-CONTAINING BIOMATERIALS AND METHODS OF USE” (University of Oregon, priority 2021, published 2023):
# Assay: Precipitation in filtered concentrated cupric dilactate solution
# Type: physicochemical
# Conditions: cupric dilactate in water, sonicated, overnight 37° C., 0.45 μm filtered; over 3 weeks
# Description: Increased concentrations of cupric dilactate were prepared for use in polymers to achieve higher loading. Excess of cupric dilactate in water (5 g in 10 ml) was prepared and sonicated for 30-120 minutes (15 minutes each x 2-8 times with 10 minutes break between each sonication session) and left overnight at 37° C. The solution obtained was cooled to room temperature and the green liquid containing cupric dilactate was separated from the undissolved cupric dilactate by aspiration and filtering through 0.45 μm syringe filter. […] This solution can be used for loading plugs, for example as described in Examples 1-3.
compound,measurement,value
CC(O)C(=O)[O-].CC(O)C(=O)[O-].[Cu+2] (stereo not shown) [cupric dilactate],precipitate in the filtrate,No precipitate was observed
